What was measured:
[1] = tested on: 293T cells; test: SamRNA-LUC transfection efficiency of LNPs by plate reader (luminescence); type: cell-based; conditions: LNP-SamRNA-Luc formulated with the lipid, incubated overnight, FIG. 11
Experimental: (§1) The LNPs containing SamRNA-GFP (or SamRNA-LUC, 100 ng/well) were added into 96-well plate which was pre-seeded with 293T, C2C12 or MC38 cells. After 24 hours incubation at 37° C. and 5% CO2, the luciferase SamRNA transfection efficiency was measured by plate reader (Perkin Elmer Envision 2104). The GFP SamRNA transfection efficiency was measured by flow cytometry (BD FACSymphony™ A5 SE Cell Analyzer).

[2] = tested on: 293T, C2C12 or MC38 cells; test: SamRNA-GFP transfection efficiency of LNPs by flow cytometry; type: cell-based; conditions: LNP-SamRNA-GFP formulated with the lipid; FIGS. 4-6, 8-10
Experimental: The delivery system used to deliver the GFP-mRNA transfect are LNPs formulated using 12 individual ionizable lipids synthesized by three-component reactions. To generate the LNP encapsulated self-amplifying mRNA, the ionizable lipids of the present disclosure were dissolved in ethanol and directly added into an ethanol solution containing DOPE, cholesterol and DMG-PEG2000 at predetermined molar ratio. Self-amplifying mRNA encoding GFP sequences aqueous solution was mixed and the LNP mixture (100 ng mRNA) was added to a 96-well plate pre-seeded with MC38, C2C12 or 293T cells. The cells were incubated at 5% CO2 and 37° C. overnight. The GFP mRNA transfection efficiency was measured by flow cytometry.
E6, an ionizable lipid of the disclosure, was formulated into LNPs with 1,2-Dioleoyl-sn-glycero-3-phosphoethanolamine (DOPE), cholesterol (Chol), methoxypolyethylene glycol (DMG-PEG2000) with a mole ratio of 50/10/38.5/1.5 (ionizable lipid/DOPE/Chol/DMG-PEG2000) encapsulated self-amplifying mRNA or DNA encoding with reporter genes either green fluorescent protein (samRNA-GFP or DNA-CMV-EGFP) or firefly Luciferase (samRNA-LUC). Formulations containing 100 ng of self-amplifying mRNA were incubated to a well of 96-well plate with 60-70% confluent of HEK293, or C2C12, or MC38 cells (FIGS. 10, 23). The transfection efficiency was determined by flow cytometry for detection of GFP, or plate reader for detection of luciferase. LNP formulated using FDA approved ionizable lipid MC3 was used as a control (FIG. 10).
as §1

| SMILES | bioluminescence signals compared with MC3-LNP-SamRNA-Luc [1] | delivery of mRNA-GFP compared with FDA approved ionizable lipid MC3 [2] |
| --- | --- | --- |
| CCCCCCCCCCCCCC(=O)N(C(CCCCCCC)CCCCCCC)C(CC1CCN(C)CC1)C(=O)NC1CCCCCC1 (stereo not drawn) [P38D7, N-(1-(cycloheptylamino)-3-(1-methylpiperidin-4-yl)-1-oxopropan-2-yl)-N-(pentadecan-8-yl)tetradecanamide] | stronger bioluminescence signals than MC3-LNP-SamRNA-Luc |  |
| CCCCCCCCCCCCCCCC(=O)N(C(CCCCCCCC)CCCCCCCC)C(C(=O)NC1=CCCCC1)C1CCN(CC)CC1 (stereo not drawn) [P6A2, N-(2-(cyclohex-1-en-1-ylamino)-1-(1-ethylpiperidin-4-yl)-2-oxoethyl)-N-(heptadecan-9-yl)palmitamide] | stronger bioluminescence signals than MC3-LNP-SamRNA-Luc |  |
| CCCCCCCCCCCCCC(=O)N(C(CCCCCCC)CCCCCCC)C(C(=O)NC1CCCCCC1)C1CCN(CC)CC1 (stereo not drawn) [P38D1, N-(2-(cycloheptylamino)-1-(1-ethylpiperidin-4-yl)-2-oxoethyl)-N-(pentadecan-8-yl)tetradecanamide] | stronger bioluminescence signals than MC3-LNP-SamRNA-Luc |  |
| CCCCCCCCCCCCCCCCC(=O)N(C(CCCCCCC)CCCCCCC)C(C(=O)NC12CC3CC(CC(C3)C1)C2)C1CCN(CC)CC1 (stereo not drawn) [P56B1, N-(2-(((1s,3s)-adamantan-1-yl)amino)-1-(1-ethylpiperidin-4-yl)-2-oxoethyl)-N-(pentadecan-8-yl)heptadecanamide] | stronger bioluminescence signals than MC3-LNP-SamRNA-Luc |  |
| CCCCCCCCCCCCCC(=O)N(CC(CCCCCCCC)CCCCCCCCCC)C(C(=O)NC1CCCCC1)C1CCN(CC)CC1 (stereo not drawn) [P26D4, N-(2-(cyclohexylamino)-1-(1-ethylpiperidin-4-yl)-2-oxoethyl)-N-(2-octyldodecyl) tetradecanamide] | stronger bioluminescence signals than MC3-LNP-SamRNA-Luc |  |
| CCCCCCCCCCCCC(=O)N(CC(CCCCCCCCCC)CCCCCCCCCCCC)C(CC1CCN(C)CC1)C(=O)NC(C)(C)C (stereo not drawn) [P51C12, N-(1-(tert-butylamino)-3-(1-methylpiperidin-4-yl)-1-oxopropan-2-yl)-N-(2-decyltetradecyl)tridecanamide] | stronger bioluminescence signals than MC3-LNP-SamRNA-Luc |  |
| CCCCCCCCCCCCCCCC(=O)N(C(CCCCCCC)CCCCCCC)C(C(=O)NC12CC3CC(CC(C3)C1)C2)C1CCN(CC)CC1 (stereo not drawn) [P56A1, N-(2-(((1s,3s)-adamantan-1-yl)amino)-1-(1-ethylpiperidin-4-yl)-2-oxoethyl)-N-(pentadecan-8-yl)palmitamide] | stronger bioluminescence signals than MC3-LNP-SamRNA-Luc |  |
| CCCCCCCCN(CCCCCCCC)C(c1ccc(C(c2ccccc2O)N(CCCCCCCC)CCCCCCCC)cc1)c1ccccc1O (stereo not drawn) [TP1A11, 2,2′-(1,4-phenylenebis((dioctylamino)methylene))diphenol] |  | more effectively deliver mRNA-GFP |
| CCCCCCCCCCC(=O)N(C(CCCCCCC)CCCCCCC)C(C(=O)NCCCC)C1CCN(CC)CC1 (stereo not drawn) [P16B1, N-(2-(butylamino)-1-(1-ethylpiperidin-4-yl)-2-oxoethyl)-N-(pentadecan-8-yl)undecanamide] | stronger bioluminescence signals than MC3-LNP-SamRNA-Luc |  |
| CCCCCCCCCCCCC(=O)N(C(CCCCCCC)CCCCCCC)C(C(=O)NCC(=O)OCC)C1CCN(CC)CC1 (stereo not drawn) [P1C1, Ethyl (2-(1-ethylpiperidin-4-yl)-2-(N-(pentadecan-8-yl)tridecanamido)acetyl)glycinate] | stronger bioluminescence signals than MC3-LNP-SamRNA-Luc |  |
| CCCCCCCCCCCCC(CCCCCCCCCC)CN(C(=O)CCCCCCCCCC)C(C(=O)NC12CC3CC(CC(C3)C1)C2)C1CCN(CC)CC1 (stereo not drawn) [P54B6, N-(2-(((1s,3s)-adamantan-1-yl)amino)-1-(1-ethylpiperidin-4-yl)-2-oxoethyl)-N-(2-decyltetradecyl)undecanamide] | stronger bioluminescence signals than MC3-LNP-SamRNA-Luc |  |
| CCCCCCCCCCCC(=O)N(CC(CCCCCCCC)CCCCCCCCCC)C(CC1CCN(C)CC1)C(=O)NC1CCCCCC1 (stereo not drawn) [P40C10, N-(1-(cycloheptylamino)-3-(1-methylpiperidin-4-yl)-1-oxopropan-2-yl)-N-(2-octyldodecyl)dodecanamide] | stronger bioluminescence signals than MC3-LNP-SamRNA-Luc |  |
| CCCCCCCCCN(CCCCCCCCC)CCC(=O)N1CN(C(=O)CCN(CCCCCCCCC)CCCCCCCCC)CN(C(=O)CCN(CCCCCCCCC)CCCCCCCCC)C1 [E2, 1,1′,1″-(1,3,5-triazinane-1,3,5-triyl)tris(3-(dinonylamino)propan-1-one)] |  | more effectively deliver mRNA-GFP |
| CCCCCCCCCCCCC(CCCCCCCCCC)CN(C(=O)CCCCCCCCC)C(C(=O)NC(C)(C)C)C1CCN(CC)CC1 (stereo not drawn) [P53A6, N-(2-(tert-butylamino)-1-(1-ethylpiperidin-4-yl)-2-oxoethyl)-N-(2-decyltetradecyl)decanamide] | stronger bioluminescence signals than MC3-LNP-SamRNA-Luc |  |
| CCCCCCCCCCCC(=O)N(C(CCCCCCCCCCC)CCCCCCCCCCC)C(CC1CCN(C)CC1)C(=O)NC1CCCCCC1 (stereo not drawn) [P40C11, N-(1-(cycloheptylamino)-3-(1-methylpiperidin-4-yl)-1-oxopropan-2-yl)-N-(tricosan-12-yl)dodecanamide] | stronger bioluminescence signals than MC3-LNP-SamRNA-Luc |  |
| CCCCCCCCCCCC(CCCCCCCCCCC)N(C(=O)CCCCCCCCC)C(C(=O)NC(C)(C)C)C1CCN(CC)CC1 (stereo not drawn) [P53A5, N-(2-(tert-butylamino)-1-(1-ethylpiperidin-4-yl)-2-oxoethyl)-N-(tricosan-12-yl)decanamide] | stronger bioluminescence signals than MC3-LNP-SamRNA-Luc |  |
| CCCCCCCCCCCCCC(=O)N(C(CCCCCCCC)CCCCCCCC)C(CC1CCN(C)CC1)C(=O)NC1CCCCCC1 (stereo not drawn) [P38D8, N-(1-(cycloheptylamino)-3-(1-methylpiperidin-4-yl)-1-oxopropan-2-yl)-N-(heptadecan-9-yl)tetradecanamide] | stronger bioluminescence signals than MC3-LNP-SamRNA-Luc |  |
| CCCCCCCCCCCCCCC(=O)N(C(CCCCCCC)CCCCCCC)C(CC1CCN(C)CC1)C(=O)NC1CCCCCC1 (stereo not drawn) [P40D7, N-(1-(cycloheptylamino)-3-(1-methylpiperidin-4-yl)-1-oxopropan-2-yl)-N-(pentadecan-8-yl)pentadecanamide] | stronger bioluminescence signals than MC3-LNP-SamRNA-Luc |  |
| CCCCCCCCCCCCCCCCCC(=O)N(C(CCCCCCC)CCCCCCC)C(CC1CCN(C)CC1)C(=O)NC1CCCCC1 (stereo not drawn) [P30C7, N-(1-(cyclohexylamino)-3-(1-methylpiperidin-4-yl)-1-oxopropan-2-yl)-N-(pentadecan-8-yl)stearamide] | stronger bioluminescence signals than MC3-LNP-SamRNA-Luc |  |
| CCCCCCCCCCCCCCCC(=O)N(C(CCCCCCC)CCCCCCC)C(C(=O)NC1CCCCC1)C1CCN(CC)CC1 (stereo not drawn) [P30A1, N-(2-(cyclohexylamino)-1-(1-ethylpiperidin-4-yl)-2-oxoethyl)-N-(pentadecan-8-yl)palmitamide] | stronger bioluminescence signals than MC3-LNP-SamRNA-Luc |  |
| CCCCCCCCCCCCCCCCC(=O)N(C(CCCCCCC)CCCCCCC)C(CC1CCN(C)CC1)C(=O)NC1CCCCC1 (stereo not drawn) [P30B7, N-(1-(cyclohexylamino)-3-(1-methylpiperidin-4-yl)-1-oxopropan-2-yl)-N-(pentadecan-8-yl)heptadecanamide] | stronger bioluminescence signals than MC3-LNP-SamRNA-Luc |  |
| CCCCCCCCC(CCCCCCCC)N(C(=O)CCCCCCC)C(C(=O)NCCCC)C1CCN(CC)CC1 (stereo not drawn) [P14A2, N-(2-(butylamino)-1-(1-ethylpiperidin-4-yl)-2-oxoethyl)-N-(heptadecan-9-yl)octanamide] | stronger bioluminescence signals than MC3-LNP-SamRNA-Luc |  |
| CCCCCCCCCCC(=O)N(CC(CCCCCCCC)CCCCCCCCCC)C(CC1CCN(C)CC1)C(=O)NC1CCCCCC1 (stereo not drawn) [P40B10, N-(1-(cycloheptylamino)-3-(1-methylpiperidin-4-yl)-1-oxopropan-2-yl)-N-(2-octyldodecyl)undecanamide] | stronger bioluminescence signals than MC3-LNP-SamRNA-Luc |  |
| CCCCCCCCCCCCCC(=O)N(CC(CCCCCCCC)CCCCCCCCCC)C(C(=O)NCC(=O)OCC)C1CCN(CC)CC1 (stereo not drawn) [P1D4, Ethyl (2-(1-ethylpiperidin-4-yl)-2-(N-(2-octyldodecyl)tetradecanamido)acetyl)glycinate] | stronger bioluminescence signals than MC3-LNP-SamRNA-Luc |  |

From patent publication US12655114B2, “Ionizable lipid compounds and lipid nanoparticle compositions” (SunVax mRNA Therapeutics Inc., priority 2022, dated 2026)
